Measurements reported in patent US20180064755A1, “COMPOSITIONS AND METHODS FOR TREATING DRUG ADDICTION” (priority 2015, published 2018).

Test system: codeine addiction
Assay: Blind trial, rubidium chloride to treat codeine addiction
Type: in vivo, human
Protocol: The trial below was a blind trial with 300 mg of rubidium chloride taken once per day administered in a glass of water in the morning by a person of 90 kg; and a placebo being taken by a person of 66 kg, both of whom were addicted to codeine
The trial was undertaken with the recommendation by doctors not to proceed too quickly and to eat potassium rich foods, especially at night; The most difficult aspect was to stop the craving in the evening—a solution for people who cannot stop the craving at night would be to split the dosage of the 300 mg of Rubidium Chloride and take half in the morning and half late in the afternoon.
The aim of this trial was to stop the craving for codeine with the aid of the compound and use the enhanced energy and stimulation supplied from the compound that was tested to change addiction habits.
The trial was for 300 mg of Rubidium Chloride taken once per day taken in a glass of water in the morning in this blind study and a placebo of powdered sugar taken once per day taken in a glass of water in the morning.

[1] = 90 kg male, 300 mg once per day, self-report

SMILES: [Cl-].[Rb+] [rubidium chloride]
- craving for codeine (90 kg male addicted to codeine, 300 mg once per day in a glass of water in the morning, self-report): less craving for the drug than normal even after the first day
- energy and activity during the day [1]: much more energy than before
- stimulation from the medication [1]: very, very strong
- outcome of codeine addiction (90 kg male, 300 mg once per day, two month trial): lost the addiction to codeine
